# Assay results as given in patent publication US12370198B2, “Pharmaceutical compositions and methods for treating psychiatric disorders” (LA PHARMATECH INC., priority 2022, dated 2025).
# Assays:
# [1] = test system: generalized anxiety disorder (GAD); experiment: Clinical case treatment of patients with generalized anxiety disorder; assay type: in vivo, human; settings: for improvement of GAD reported by patient: Example 1, person
# Experimental: A patient was diagnosed with generalized anxiety disorder (GAD) and they had no complaints of having insomnia. […] Then they were treated with the combination of ebastine (20 mg) and alprazolam (1 mg) for 2 weeks. […] The inventors believe the composition of two mechanisms of actions provided a new solution for treating their GAD which could not be treated with alprazolam and the like alone.
# A patient with no insomnia symptom order was diagnosed with GAD. The patient was treated with alprazolam (2 mg) for 2 weeks from their first clinic visit and alprazolam (4 mg) for 2 weeks from their second clinic visit. […] On the third clinic visit, the patient was prescribed with the combination of ebastine (10 mg) and alprazolam (4 mg). […] The inventors believe that the two compositions of two mechanisms of actions provided a new solution for treating their […] which could not be treated with other options.
# [2] = test system: mild chronic depression (MCD); experiment: Clinical case treatment of a patient with mild chronic depression; assay type: in vivo, human; settings: Example 3
# Experimental: The patient was prescribed with ebastine 30 mg for 3 weeks from the first clinic visit. […] Then they were prescribed with a combination of ebastine (10 mg) and alprazolam (0.5 mg) for a 4-week treatment.
# [3] = test system: major depressive disorder (MDD); experiment: Clinical case treatment of patients with major depressive disorder; assay type: in vivo, human; settings: for improvement of MDD: alprazolam 5 mg for 2 weeks; for outcome of previous anti-depressant treatment of MDD: Example 2, person; for outcome of previous anti-depressant treatment of MDD / outcome of previous treatments of MDD symptoms: previous treatments; for outcome of previous treatments of MDD symptoms: Example 4, person
# Experimental: A patient having no insomnia symptom was diagnosed with major depressive disorder (MDD) showing persistent sadness, loneliness, helpless, and hapless. […] Then they were prescribed with a combination of ebastine (30 mg) and alprazolam (5 mg) for 4 weeks.
# A patient with no insomnia symptom was diagnosed with major depressive disorder (MDD) with persistent sadness, lack of interest, and feeling lonely. […] Then they were treated with a combination of ebastine (30 mg) and alprazolam (0.5 mg) for 4 weeks from the second clinic visits.
# [4] = test system: premenstrual dysphoric disorder (PDD); experiment: Clinical case treatment of a patient with premenstrual dysphoric disorder; assay type: in vivo, human
# Experimental: A patient with no insomnia symptom was diagnosed with premenstrual dysphoric disorder (PDD) with symptoms of persistent hopelessness, sadness, anxiety and frequent tearfulness on the first clinic visit and was provided with fluoxetine 40 mg for 3 weeks. […] Then the patient was prescribed with the combination of ebastine (20 mg) and alprazolam (2 mg) for 2 weeks.
# REM sleep = settings: background studies; cited from earlier work
# [5] = test system: release of prostaglandin D2 (PGD2) and leukotrienes C4/D4 (LTC4/D4); settings: background statement; cited from earlier work
# allergic rhinitis = experiment: Clinical case treatment of allergic rhinitis; assay type: in vivo, human; settings: Example 3, person; ebastine 30 mg for 3 weeks
# Experimental: A patient with no insomnia symptom was having allergic rhinitis with itchy nose, mouth and eyes, frequent sneezing, watery eyes and coughing, and runny nose when they were diagnosed with mild chronic depression (MCD) but showing symptoms of sadness, lack of interest, loneliness and helpless, consistent frustration for 4 weeks with failed treatment history of allergic rhinitis. The patient was prescribed with ebastine 30 mg for 3 weeks from the first clinic visit. […] But their symptoms from MCD were persistent. […] Then they were prescribed with a combination of ebastine (10 mg) and alprazolam (0.5 mg) for a 4-week treatment.
# [6] = test system: release of cytokines (GM-CSF, tumour necrosis factor-a, interleukin-8); settings: background statement; cited from earlier work
structure (smiles),measurement,setting,value
"Cc1nnc2n1-c1ccc(Cl)cc1C(c1ccccc1)=NC2 [alprazolam, 8-chloro-1-methyl-6-phenyl-4H-s-triazolo[4,3-a][1,4]benzodiazepine]",improvement of GAD reported by patient,[1]; alprazolam 0.5 mg for 2 weeks,no improvement
same,improvement of GAD reported by patient,[1]; alprazolam 2 mg for 2 weeks,no improvement
same,"improvement of GAD symptoms (anxiety, agitation, sweating, nausea, headaches)","[1]; Example 5, person, alprazolam (2 mg) for 2 weeks",failed to improve
same,"improvement of GAD symptoms (anxiety, agitation, sweating, nausea, headaches)","[1]; Example 5, alprazolam (4 mg) for 2 weeks",failed to improve
same,improvement of MCD symptoms,[2]; alprazolam 1 mg for 3 weeks,no improvement
same,improvement of MDD,[3]; Example 2,no improvement
same,improvement of MDD,[3]; Example 4,20%
same,improvement of PDD symptoms,"[4]; Example 6, alprazolam (2 mg) for 2 weeks",failed to improve
same,REM latency,REM sleep,increases
same,length of REM periods and frequency of REM burst activities,REM sleep,significantly decreases
CC(NC(C)(C)C)C(=O)c1cccc(Cl)c1 (centres unmarked) [bupropion],outcome of previous anti-depressant treatment of MDD,[3],failed
same,outcome of previous treatments of MDD symptoms,[3],failed to improve
CC(C)(C(=O)O)c1ccc(C(=O)CCCN2CCC(OC(c3ccccc3)c3ccccc3)CC2)cc1 [carebastine],release of PGD2,[5],inhibits
CNCC[C@H](Oc1cccc2ccccc12)c1cccs1 [duloxetine],outcome of previous anti-depressant treatment of MDD,[3],failed
"CC(C)(C)c1ccc(C(=O)CCCN2CCC(OC(c3ccccc3)c3ccccc3)CC2)cc1 [ebastine, 4-diphenylmethoxy-1-[3-(4-tert-butylbenzoyl)-propyl]piperidine]",recovery from allergic rhinitis,allergic rhinitis,complete recovery
same,"release of cytokines, including GM-CSF, tumour necrosis factor-a and interleukin-8",[6],inhibited
same,symptoms from MCD,[2]; ebastine 30 mg for 3 weeks,persistent
same,anti-IgE-induced release of prostaglandin D2 (PGD2) and leukotrienes C4/D4 (LTC4/D4),[5],significantly inhibits
CNCCC(Oc1ccc(C(F)(F)F)cc1)c1ccccc1 (centres unmarked) [fluoxetine],outcome of previous treatments of MDD symptoms,[3],failed to improve
same,improvement of PDD symptoms,"[4]; Example 6, person, fluoxetine 40 mg for 3 weeks",no improvement
